# In ChEMBL document CHEMBL1201862, “PubChem BioAssay data set” (2004):
#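 Five compound concentrations were applied to cells in 96-well plates for 48 hours; endpoints were derived by simple linear interpolation of the resulting dose-response curve. GI50 marks 50% less growth.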 Active and inactive are the calls of the source. No stated cut-off is given here; in the data, active = GI50 up to about 1.1 µM and inactive = higher.
# How the values were obtained:
# Experiment in all cases: growth of human tumour cells (NCI), 48 h
# MDA-N = test system: MDA-N
# 786-0 = test system: 786-0
# HT-29 = test system: HT-29
# SN12C = test system: SN12C
# CAKI-1 = test system: CAKI-1
# HCT-15 = test system: HCT-15
# UACC-62 = test system: UACC-62
# SK-MEL-5 = test system: SK-MEL-5
# ACHN = test system: ACHN
# CCRF-CEM = test system: CCRF-CEM
# NCI/ADR-RES = test system: NCI/ADR-RES
# LOX IMVI = test system: LOX IMVI
# SF-295 = test system: SF-295
# A549 = test system: A549
# SNB-75 = test system: SNB-75
# COLO 205 = test system: COLO 205
# OVCAR-5 = test system: OVCAR-5
# NCI-H23 = test system: NCI-H23
# SK-MEL-2 = test system: SK-MEL-2
# K562 = test system: K562
Compound,GI50 (MDA-N),GI50 (786-0),GI50 (HT-29),GI50 (SN12C),GI50 (CAKI-1),GI50 (HCT-15) [µM],GI50 (UACC-62),GI50 (SK-MEL-5),GI50 (ACHN),GI50 (CCRF-CEM),GI50 (NCI/ADR-RES),GI50 (LOX IMVI),GI50 (SF-295),GI50 (A549),GI50 (SNB-75),GI50 (COLO 205),GI50 (OVCAR-5),GI50 (NCI-H23),GI50 (SK-MEL-2),GI50 (K562)
N#Cc1nc2ccccc2nc1N1CCN(c2ccc([N+](=O)[O-])cc2)CC1,> 100 µM (inactive),> 100 µM (inactive),> 100 µM (inactive),> 100 µM (inactive),> 100 µM (inactive),> 100,> 100 µM (inactive),> 100 µM (inactive),> 100 µM (inactive),> 100 µM (inactive),> 100 µM (inactive),> 100 µM (inactive),> 100 µM (inactive),> 100 µM (inactive),> 100 µM (inactive),> 100 µM (inactive),> 100 µM (inactive),> 100 µM (inactive),> 100 µM (inactive),–
CCN(CC)c1ccc(/C=C(\C#N)c2nc(N)nc(N3N=C(C)CC3(C)C)n2)cc1,24.1 µM (inactive),13.4 µM (inactive),18.8 µM (inactive),27.3 µM (inactive),15.1 µM (inactive),> 59.3,30.3 µM (inactive),21.6 µM (inactive),14.7 µM (inactive),19.1 µM (inactive),15.8 µM (inactive),14 µM (inactive),16.6 µM (inactive),16.2 µM (inactive),10 µM (inactive),29.6 µM (inactive),26.7 µM (inactive),27.5 µM (inactive),15.6 µM (inactive),> 38.1 µM (inactive)
CC(C)=CCc1c2c(c3occ(-c4ccc(O)c(O)c4)c(=O)c3c1O)C=CC(C)(C)O2 [POMIFERIN],1.7 µM (inactive),1.51 µM (inactive),1.84 µM (inactive),1.58 µM (inactive),1.55 µM (inactive),1.91,3.85 µM (inactive),2.96 µM (inactive),2.39 µM (inactive),0.723 µM (active),2.18 µM (inactive),2.19 µM (inactive),3.77 µM (inactive),2.55 µM (inactive),3.61 µM (inactive),1.78 µM (inactive),7.82 µM (inactive),1.57 µM (inactive),2.6 µM (inactive),2.29 µM (inactive)
O=C(NC(Cc1ccccc1)P(=O)(O)c1ccccc1)OCc1ccccc1 (centres undefined),> 100 µM (inactive),> 100 µM (inactive),> 100 µM (inactive),> 100 µM (inactive),> 100 µM (inactive),> 100,> 100 µM (inactive),> 100 µM (inactive),> 100 µM (inactive),> 100 µM (inactive),> 100 µM (inactive),> 100 µM (inactive),> 100 µM (inactive),> 100 µM (inactive),> 100 µM (inactive),> 100 µM (inactive),> 100 µM (inactive),> 100 µM (inactive),–,> 100 µM (inactive)
O=C1O[C@H]2[C@@H]3OC(=O)c4cc(O)c(O)c(O)c4-c4c(cc(O)c(O)c4O)C(=O)OC[C@H]2O[C@@H](OC(=O)c2cc(O)c(O)c(O)c2)[C@@H]3OC(=O)c2cc(O)c(O)c3c2[C@@H]2C1=CC(=O)C(O)(O)C2(O)O3 (some centres undefined),16 µM (inactive),18.1 µM (inactive),16.5 µM (inactive),16.9 µM (inactive),14.1 µM (inactive),21.9,30.1 µM (inactive),25.5 µM (inactive),31.5 µM (inactive),27 µM (inactive),39.3 µM (inactive),13.3 µM (inactive),31.6 µM (inactive),25.9 µM (inactive),24.6 µM (inactive),25.9 µM (inactive),16.4 µM (inactive),33.1 µM (inactive),29.9 µM (inactive),29.6 µM (inactive)
COC(=O)[C@@H]1C[C@H]([Se]c2ccccc2)CN1S(=O)(=O)c1ccc(C)cc1,> 100 µM (inactive),> 100 µM (inactive),49.7 µM (inactive),> 100 µM (inactive),> 100 µM (inactive),> 100,> 100 µM (inactive),45.2 µM (inactive),> 100 µM (inactive),61 µM (inactive),34.1 µM (inactive),> 100 µM (inactive),40.9 µM (inactive),51.8 µM (inactive),2.87 µM (inactive),61.5 µM (inactive),> 100 µM (inactive),> 100 µM (inactive),21.4 µM (inactive),34.7 µM (inactive)
O=C(O)COc1c(Cl)cc(Cl)c(C(c2c(Cl)cc(Cl)c(OCC(=O)O)c2Cl)C(Cl)(Cl)Cl)c1Cl,> 100 µM (inactive),37.2 µM (inactive),29 µM (inactive),31 µM (inactive),33.7 µM (inactive),26.4,18.9 µM (inactive),18.5 µM (inactive),33.7 µM (inactive),–,34 µM (inactive),33.7 µM (inactive),25 µM (inactive),30.1 µM (inactive),29.6 µM (inactive),40 µM (inactive),29.3 µM (inactive),25.9 µM (inactive),19.8 µM (inactive),33.3 µM (inactive)
C[C@H](CCC(=O)O)[C@H]1CC[C@H]2[C@@H]3[C@@H](O)C[C@@H]4C[C@H](O)CC[C@]4(C)[C@H]3CC[C@]12C [URSODIOL],> 100 µM (inactive),> 100 µM (inactive),> 100 µM (inactive),> 100 µM (inactive),> 100 µM (inactive),> 100,> 100 µM (inactive),–,> 100 µM (inactive),> 100 µM (inactive),> 100 µM (inactive),> 100 µM (inactive),–,> 100 µM (inactive),99.1 µM (inactive),> 100 µM (inactive),> 100 µM (inactive),> 100 µM (inactive),> 100 µM (inactive),72.8 µM (inactive)
O=c1cc(/N=N/c2ccc(O)cc2)[nH]c(=O)[nH]1,> 100 µM (inactive),39.8 µM (inactive),67.8 µM (inactive),66.7 µM (inactive),> 100 µM (inactive),> 100,60.7 µM (inactive),> 100 µM (inactive),> 100 µM (inactive),–,> 100 µM (inactive),79.6 µM (inactive),> 100 µM (inactive),> 100 µM (inactive),26.6 µM (inactive),> 100 µM (inactive),> 100 µM (inactive),> 100 µM (inactive),> 100 µM (inactive),> 100 µM (inactive)
O=C(/C=C/c1cccc([N+](=O)[O-])c1)N1CCN(CCOC(c2ccccc2)c2ccccc2)CC1,37.3 µM (inactive),38.2 µM (inactive),19.2 µM (inactive),57.5 µM (inactive),> 100 µM (inactive),31.1,33.8 µM (inactive),14.9 µM (inactive),34.5 µM (inactive),28.4 µM (inactive),48.6 µM (inactive),22.9 µM (inactive),56.8 µM (inactive),45.7 µM (inactive),54.2 µM (inactive),21.7 µM (inactive),> 100 µM (inactive),43.6 µM (inactive),–,19.4 µM (inactive)
O=C1CNc2cc(N3CCN(c4cccc(C(F)(F)F)c4)CC3)ccc2N1,84.5 µM (inactive),> 100 µM (inactive),70.6 µM (inactive),> 100 µM (inactive),> 100 µM (inactive),38.9,35.1 µM (inactive),18.9 µM (inactive),50.6 µM (inactive),38.4 µM (inactive),34.6 µM (inactive),38.4 µM (inactive),24.3 µM (inactive),24.7 µM (inactive),84.7 µM (inactive),27.5 µM (inactive),68.5 µM (inactive),39.9 µM (inactive),0.755 µM (active),–
N#Cc1c(/C=C/c2ccccc2)c2c([nH]c1=S)CCCCC2,> 100 µM (inactive),> 100 µM (inactive),> 100 µM (inactive),> 100 µM (inactive),> 100 µM (inactive),> 100,–,> 100 µM (inactive),> 100 µM (inactive),> 100 µM (inactive),> 100 µM (inactive),> 100 µM (inactive),> 100 µM (inactive),> 100 µM (inactive),> 100 µM (inactive),> 100 µM (inactive),> 100 µM (inactive),> 100 µM (inactive),> 100 µM (inactive),> 100 µM (inactive)
COC1CCON1C(=O)c1ccccc1 (centres undefined),> 10 µM (inactive),> 10 µM (inactive),> 10 µM (inactive),> 10 µM (inactive),> 10 µM (inactive),> 10,–,> 10 µM (inactive),> 10 µM (inactive),> 10 µM (inactive),> 10 µM (inactive),> 10 µM (inactive),> 10 µM (inactive),> 10 µM (inactive),> 10 µM (inactive),> 10 µM (inactive),> 10 µM (inactive),> 10 µM (inactive),> 10 µM (inactive),> 10 µM (inactive)
COC(CN(C)C(=S)Nc1cccc2ccccc12)OC,> 10 µM (inactive),> 10 µM (inactive),> 10 µM (inactive),> 10 µM (inactive),> 10 µM (inactive),> 10,> 10 µM (inactive),> 10 µM (inactive),> 10 µM (inactive),> 10 µM (inactive),> 10 µM (inactive),> 10 µM (inactive),> 10 µM (inactive),> 10 µM (inactive),> 10 µM (inactive),> 10 µM (inactive),–,> 10 µM (inactive),> 10 µM (inactive),> 10 µM (inactive)
